In patent US20140079836A1, “METHODS AND COMPOSITIONS FOR ALTERING HEALTH, WELLBEING, AND LIFESPAN” (LifeSpan Extension, LLC, priority 2008, published 2014):

System: entire human genome (gene expression profile)
Test: Agilent whole human genome array, skin fibroblasts AG07999, antioxidant with or without UV
Assay type: cell-based
Procedure: Cell cultures: A human skin fibroblast cell culture was obtained through the Coriell Cell Repository from the National Institute on Aging Cell Repository. […] Culture media: Cells were grown in Minimal Essential Medium supplemented with 10% fetal bovine serum, 2 mM L-glutamine, 2 mM Glutamax I. […] All cultures were incubated at 37° C. with 5% CO2 in a humidified chamber. […] On Day 5 after 24 hours of exposure to test conditions, the cells were isolated and the RNA isolated using the RT^2q PCR-grade RNA isolation kit (Superarray Bioscience Corporation). […] Analysis of Agilent Whole Human Genome Arrays: RNA taken from both samples was sent to Cogenics, Inc. Morrisville, N.C. Cogenics, Inc. is a leading, state-of-the-art, microarray service provider that facilitates and accelerates transcriptome profiling and gene discovery processes for industrial and academic researchers. Cogenics' procedure for processing samples is as follows: RNA samples are received and analyzed by Cogenics, Inc. using rigorous standardized procedures that are designed to ensure quality and chain of custody. Each sample undergoes a thorough quality analysis using an Agilent Bioanalyzer microfluidics device, and is precisely quantified using a Nanodrop-1000 spectro-photometer. When the Agilent Oligonucleotide Microarray Platform is utilized, samples are fluorescently labeled using the Agilent Low-Input Linear Amplification Kit. Upon completion of this process, the labeled cRNA products are assessed using the same processes described above. These labeled samples are then fragmented and hybridized to oligonucleotide microarrays. The microarrays are washed and then scanned using an Agilent DNA Microarray Scanner with Sure Scan technology. Data is extracted from the images produced by the scanner using Agilent's Feature Extraction software. At this point, the scanned image is visually inspected for defects, and the extracted data is statistically analyzed to ensure quality of the assay. Extracted data and images can be loaded into Rosetta Resolver Gene Expression Data Analysis System for in-depth analysis, both from a quality standpoint, as well as to develop biological understanding. […] A table was generated and provided as a tab-delimited text file. This file will contain the log ratio, fold-change, log ratio p-value, etc. for every transcript measured by the microarray. Using Rosetta Resolver, a single ratio comparison was compiled based on the results of the two fluorophore reversal hybridization performed in the context of this project. The ratios were calculated such that the Tx sample was in the numerator and the UnTx sample was in the denominator. A table was generated, saved as tab-delimited text files, and is provided on the DVD that accompanied this report in the “Objective—1” subdirectory or the “Data_Analysis” directory. These files contain the log ratio, fold-change, log ratio p-value, etc. for every transcript present on the microarray. […] A table for will be generated and provided as a tab-delimited text file. The file will contain the log ratio, fold-change, log ratio p-value, etc. for only the differentially expressed transcripts within the context of the comparison. […] These criteria were applied to the comparison made in Objective 1. A table was generated, saved as tab-delimited text files, and is provided on the DVD that accompanied this report in the “Objective—1” subdirectory or the “Data_Analysis” directory. […] Cell cultures: A human skin fibroblast cell culture (or cultures) will be obtained through the Coriell Cell Repository from the National Institute on Aging Cell Repository. […] Culture media: Cells will be grown in Minimal Essential Medium supplemented with 10% fetal bovine serum, 2 mM L-glutamine, 2 mM Glutamax I.

COC1=C(OC)C(=O)C(CCCCCCCCCCO)=C(C)C1=O [Idebenone, 6-(10-hydroxydecyl)-2,3-dimethoxy-5-methyl-1,4-benzoquin-one]
STOML2 Expression (Alone): 1.2
TAGLN Expression (Alone): −1.2
TBXA2R Expression (Alone): −1.1
TEP1 Expression (Alone): 1.0
TERF1 Expression (Alone): −1.0
TERT expression (Alone): 1.1
TFAP2A Expression (Alone): −1.2
TFAP2B Expression (Alone): 1.0
TFAP2C Expression (Alone): −1.1
TFRC Expression (Alone): 1.1
TGFA Expression (Alone): 1.0
TGFB1 Expression (Alone): 1.0
TGFBR2 Expression (Alone): −1.3
TGM1 Expression (Alone): −1.1
TH Expression (Alone): 1.6
THBS1 Expression (Alone): −1.1
TIMP1 Expression (Alone): −1.4
TIMP2 Expression (Alone): −1.4
TK1 Expression (Alone): 1.6
TM4SF1 Expression (Alone): −1.1
TNF Expression (Alone): 1.1
TNFRSF1A Expression (Alone): −1.1
TNFRSF1B Expression (Alone): −1.8
TNFRSF11B Expression (Alone): 1.0
TOP2A Expression (Alone): 1.6
TYMS Expression (Alone): 1.2
UBE2C Expression (Alone): 1.5
UBE2V1 Expression (Alone): −1.1
VEGFC Expression (Alone): 1.0
XRCC6BP1 Expression (Alone): 1.1
YWHAZ Expression (Alone): 1.0
AKT1 Expression (Idebenone + UVB): −1.6
ALOX12 Expression (Idebenone + UVB): 1.8
APOE Expression (Idebenone + UVB): −1.2
ARG2 Expression (Idebenone + UVB): 1.2
ATOX1 Expression (Idebenone + UVB): −1.0
CAMK1 Expression (Idebenone + UVB): −1.7
CAT Expression (Idebenone + UVB): −1.3
CCNA1 Expression (Idebenone + UVB): 1.0
CCS Expression (Idebenone + UVB): −1.2
CDKN1A Expression (Idebenone + UVB): −1.1
CYBA Expression (Idebenone + UVB): −1.2
CYGB Expression (Idebenone + UVB): −1.4
DDAH2 Expression (Idebenone + UVB): 1.0
DLG4 Expression (Idebenone + UVB): −1.0
DNCL1 Expression (Idebenone + UVB): 1.0
DND1 Expression (Idebenone + UVB): −1.0
DUOX1 Expression (Idebenone + UVB): 1.2
DUOX2 Expression (Idebenone + UVB): 2.0
DUSP1 Expression (Idebenone + UVB): 1.2
EGFR Expression (Idebenone + UVB): −1.0
EPX Expression (Idebenone + UVB): −2.2
FOXM1 Expression (Idebenone + UVB): −1.5
GCH1 Expression (Idebenone + UVB): −1.7
GCHFR Expression (Idebenone + UVB): 1.0
GLA Expression (Idebenone + UVB): 1.0
GLRX2 Expression (Idebenone + UVB): 1.0
GPR156 Expression (Idebenone + UVB): 1.3
GPX1 Expression (Idebenone + UVB): −1.1
GPX2 Expression (Idebenone + UVB): −1.2
GPX3 Expression (Idebenone + UVB): −1.2
GPX4 Expression (Idebenone + UVB): −1.1
GPX5 Expression (Idebenone + UVB): 1.4
GRIN2D Expression (Idebenone + UVB): 1.1
GSS Expression (Idebenone + UVB): −1.1
HSP90AB1 Expression (Idebenone + UVB): −1.3
IL8 Expression (Idebenone + UVB): 1.0
IL10 Expression (Idebenone + UVB): 1.1
INS Expression (Idebenone + UVB): 1.1
JUN Expression (Idebenone + UVB): −1.1
KRT1 Expression (Idebenone + UVB): 1.0
LPO Expression (Idebenone + UVB): 1.1
MBL2 Expression (Idebenone + UVB): 1.0
MPO Expression (Idebenone + UVB): 1.0
MSRA Expression (Idebenone + UVB): 1.2
MT3 Expression (Idebenone + UVB): 1.1
MTL5 Expression (Idebenone + UVB): −1.1
MYB Expression (Idebenone + UVB): 1.0
NCF1 Expression (Idebenone + UVB): −1.2
NCF2 Expression (Idebenone + UVB): 1.6
NME5 Expression (Idebenone + UVB): 1.2
NOS1 Expression (Idebenone + UVB): 1.2
NOS2A Expression (Idebenone + UVB): 1.1
NOS3 Expression (Idebenone + UVB): −1.0
NOSIP Expression (Idebenone + UVB): −1.2
NOSTRIN Expression (Idebenone + UVB): 1.0
NOX5 Expression (Idebenone + UVB): −1.2
NQO1 Expression (Idebenone + UVB): −1.2
NRF1 Expression (Idebenone + UVB): −1.4
NUDT1 Expression (Idebenone + UVB): −1.1
OXR1 Expression (Idebenone + UVB): 1.1
PGC Expression (Idebenone + UVB): 1.2
PKAR1B Expression (Idebenone + UVB): −1.0
PNKP Expression (Idebenone + UVB): −1.3
PP3CA Expression (Idebenone + UVB): 1.1
PRDX2 Expression (Idebenone + UVB): 1.0
PRDX6 Expression (Idebenone + UVB): 1.1
PREX1 Expression (Idebenone + UVB): −1.1
PRG3 Expression (Idebenone + UVB): −1.0
PRKCA Expression (Idebenone + UVB): −1.1
PRNP Expression (Idebenone + UVB): 1.0
RNF7 Expression (Idebenone + UVB): −1.0
SCARA3 Expression (Idebenone + UVB): −1.0
SCRT2 Expression (Idebenone + UVB): 1.3
SELS Expression (Idebenone + UVB): 1.0
SEPP1 Expression (Idebenone + UVB): 1.0
SGK2 Expression (Idebenone + UVB): −1.2
SIRT2 Expression (Idebenone + UVB): −1.1
SOD1 Expression (Idebenone + UVB): −1.1
SOD2 Expression (Idebenone + UVB): 1.0
SOD3 Expression (Idebenone + UVB): 1.1
SRXN1 Expression (Idebenone + UVB): −1.1
TFAM Expression (Idebenone + UVB): 1.1
TPO Expression (Idebenone + UVB): 1.0
TROAP Expression (Idebenone + UVB): −1.1
TTN Expression (Idebenone + UVB): 1.3
TXNRD2 Expression (Idebenone + UVB): −1.6
UNR Expression (Idebenone + UVB): 1.4
VEGFA Expression (Idebenone + UVB): −1.3
AKT1 Expression (Idebenone Alone): 1.0
ALOX12 Expression (Idebenone Alone): −1.1
APOE Expression (Idebenone Alone): 1.0
ARG2 Expression (Idebenone Alone): 1.0
ATOX1 Expression (Idebenone Alone): −1.0
CAMK1 Expression (Idebenone Alone): −1.1
CAT Expression (Idebenone Alone): 1.2
CCNA1 Expression (Idebenone Alone): 1.0
CCS Expression (Idebenone Alone): −1.0
CDKN1A Expression (Idebenone Alone): 1.4
CYBA Expression (Idebenone Alone): 1.0
CYGB Expression (Idebenone Alone): 1.2
DDAH2 Expression (Idebenone Alone): 1.1
DLG4 Expression (Idebenone Alone): 1.0
DNCL1 Expression (Idebenone Alone): 1.0
DND1 Expression (Idebenone Alone): 1.0
DUOX1 Expression (Idebenone Alone): 1.0
DUOX2 Expression (Idebenone Alone): −1.1
DUSP1 Expression (Idebenone Alone): −1.4
EGFR Expression (Idebenone Alone): 1.8
EPX Expression (Idebenone Alone): −1.6
FOXM1 Expression (Idebenone Alone): −1.0
GCH1 Expression (Idebenone Alone): 1.0
GCHFR Expression (Idebenone Alone): 1.0
GLA Expression (Idebenone Alone): −1.2
GLRX2 Expression (Idebenone Alone): 1.1
GPR156 Expression (Idebenone Alone): 1.3
GPX1 Expression (Idebenone Alone): 1.0
GPX2 Expression (Idebenone Alone): 1.0
GPX3 Expression (Idebenone Alone): 1.0
GPX4 Expression (Idebenone Alone): −1.3
GPX5 Expression (Idebenone Alone): 1.0
GRIN2D Expression (Idebenone Alone): 1.0
GSS Expression (Idebenone Alone): −1.1
HSP90AB1 Expression (Idebenone Alone): 1.0
IL8 Expression (Idebenone Alone): −1.2
IL10 Expression (Idebenone Alone): 1.1
INS Expression (Idebenone Alone): −1.0
JUN Expression (Idebenone Alone): 1.0
KRT1 Expression (Idebenone Alone): 1.1
LPO Expression (Idebenone Alone): 1.1
MBL2 Expression (Idebenone Alone): 1.0
MPO Expression (Idebenone Alone): 1.0
MSRA Expression (Idebenone Alone): 1.0
MT3 Expression (Idebenone Alone): −1.1
MTL5 Expression (Idebenone Alone): 1.5
MYB Expression (Idebenone Alone): 1.0
NCF1 Expression (Idebenone Alone): −1.7
NCF2 Expression (Idebenone Alone): 1.1
NME5 Expression (Idebenone Alone): 1.0
NOS1 Expression (Idebenone Alone): 1.9
NOS2A Expression (Idebenone Alone): 1.0
NOS3 Expression (Idebenone Alone): 1.0
NOSIP Expression (Idebenone Alone): 1.0
NOSTRIN Expression (Idebenone Alone): 1.1
NOX5 Expression (Idebenone Alone): 1.0
NQO1 Expression (Idebenone Alone): −1.3
NRF1 Expression (Idebenone Alone): −1.0
NUDT1 Expression (Idebenone Alone): 1.3
OXR1 Expression (Idebenone Alone): 1.0
PGC Expression (Idebenone Alone): −1.2
PKAR1B Expression (Idebenone Alone): 1.1
PNKP Expression (Idebenone Alone): 1.0
PP3CA Expression (Idebenone Alone): 1.0
PRDX2 Expression (Idebenone Alone): −1.3
PRDX6 Expression (Idebenone Alone): −1.1
PREX1 Expression (Idebenone Alone): 1.0
PRG3 Expression (Idebenone Alone): 1.0
PRKCA Expression (Idebenone Alone): 1.0
PRNP Expression (Idebenone Alone): −1.0
RNF7 Expression (Idebenone Alone): 1.2
SCARA3 Expression (Idebenone Alone): 1.1
SCRT2 Expression (Idebenone Alone): 1.4
SELS Expression (Idebenone Alone): 1.0
SEPP1 Expression (Idebenone Alone): 1.2
SGK2 Expression (Idebenone Alone): 1.2
SIRT2 Expression (Idebenone Alone): −1.0
SOD1 Expression (Idebenone Alone): −1.0
SOD2 Expression (Idebenone Alone): −1.2
SOD3 Expression (Idebenone Alone): −1.3
SRXN1 Expression (Idebenone Alone): 1.5
TFAM Expression (Idebenone Alone): −1.2
TPO Expression (Idebenone Alone): 1.0
TROAP Expression (Idebenone Alone): −1.0
TTN Expression (Idebenone Alone): 1.0
TXNRD2 Expression (Idebenone Alone): −1.3
UNR Expression (Idebenone Alone): 1.0
VEGFA Expression (Idebenone Alone): −1.7
POT1 Expression (Human Genome Expression Values) (agent + UVB): 1.2
RAP1 Expression (Human Genome Expression Values) (agent + UVB): −1.1
TERT Expression (Human Genome Expression Values) (agent + UVB): −1.3
TIN2 Expression (Human Genome Expression Values) (agent + UVB): 1.1
TNKS2 Expression (Human Genome Expression Values) (agent + UVB): 1.1
TNKS Expression (Human Genome Expression Values) (agent + UVB): 1.3
TPP1 Expression (Human Genome Expression Values) (agent + UVB): 1.0
TRF1 Expression (Human Genome Expression Values) (agent + UVB): 1.3
TRF2 Expression (Human Genome Expression Values) (agent + UVB): −1.1
POT1 Expression (Human Genome Expression Values) (agent Alone): −1.0
RAP1 Expression (Human Genome Expression Values) (agent Alone): −1.1
TERT Expression (Human Genome Expression Values) (agent Alone): 1.1
TIN2 Expression (Human Genome Expression Values) (agent Alone): 1.1
TNKS2 Expression (Human Genome Expression Values) (agent Alone): −1.0
TNKS Expression (Human Genome Expression Values) (agent Alone): 1.1
TPP1 Expression (Human Genome Expression Values) (agent Alone): −1.1
TRF1 Expression (Human Genome Expression Values) (agent Alone): −1.0
TRF2 Expression (Human Genome Expression Values) (agent Alone): 1.0
